Results from patent publication US9737487B2, “Cyclodextrin compositions encapsulating a selective ATP inhibitor and uses thereof” (The Johns Hopkins University, priority 2014, dated 2017).
Where a name gives a salt, the structure may show the parent alone.

How the values were obtained:
[1] = tested on: orthotopic MiaPaCa-2 tumors; assay: Orthotopic lucMiaPaCa-2 xenograft, systemic treatment with BLI follow-up, survival and necropsy (Example 6); type: in vivo, mice
Protocol: Male athymic nude mice (body weight, 20-25 g; 4 weeks old; Crl:NU (NCr)-Fox1^nu; Charles River Laboratory, Germantown, Md., USA) were used in accordance with institutional guidelines under approved Animal Care and Use Committee protocols. Mice were maintained in laminar flow rooms at constant temperature and humidity with food and water given ad libitum. Orthotopic xenograft tumors were generated by implantation of 1.5×10^6 lucMiaPaCa-2, suspended in 50 μl PBS, into the tail of the pancreas in anesthetized mice. To accomplish this, mice were placed into a clean anesthesia induction chamber (oxygen flow rate, 1 liter/minute; isoflurane concentration of 3-4%). Upon loss of the righting reflex, animals were placed on the surgical procedure surface, where a nose cone was used to maintain anesthesia (oxygen flow, 0.8 liters/minute; Isoflurane concentration, 1.5-2%). A small, left abdominal flank incision was made, and the pancreas was exteriorized to inject the cell solution using a 30 G Hamilton syringe. A successful subcapsular intrapancreatic injection was identified by the appearance of a fluid bleb without intraperitoneal leakage. The abdominal cavity was closed with a double-layer of non-absorbable suture material (Kim et al. (2009) Nat. Protocol. 4:1670-1680).
Tumor viability was confirmed via in vivo bioluminescence imaging (BLI) on day 7 after the surgical implantation. Anesthetized tumor-bearing mice were injected intraperitoneally with D-luciferin 150 mg/kg and optically imaged 5 minutes later using the IVIS 200 system (Xenogen). The pseudocolor image representing the spatial distribution of photons was overlaid on a previously acquired grayscale photographic image. A region of interest (ROI) was created to include the optical tumor image. Signal intensity was quantified within the ROI in photons/second/squared centimeter/steradian (p/s/cm2/Sr) after a 10-second exposure using Living Image software (Xenogen). Additionally, orthotopic growth of the tumors was confirmed prior to treatment using small-animal ultrasound imaging (USI). In brief, anesthetized mice were subjected to examination using the VEVO2100 (Visual Sonics Inc., Toronto, Canada, kindly provided by Dr. Harry C. Dietz) by applying a MS-550D MicroScan transducer probe with 40 MHz (broadband with 22-55 MHz). Tumor localization was confirmed using the cranial tip of the left kidney and the caudal tip of the spleen as anatomic landmarks (Ota et al. (2013) Target. Oncol. 8:145-151; Tuli et al. (2012) Translat. Oncol. 5:77-84). […]

Suit-2 cells [2] = assay: Monolayer cell culture viability assay (CellTiter-Glo), Suit-2; type: cell-based; settings: Homo sapiens, normoxic, 72 hrs. exposure, barely achieved
Protocol: (§1) Two human pancreatic adenocarcinoma cell lines, lucMiaPaCa-2 (stably transfected with the luciferase-aminoglycoside phosphotransferase fusion gene, kindly provided by Dr. Phuoc T. Tran) and Suit-2 (kindly provided by Dr. Shinichi Ota, Japan) were cultured in RPMI or MEM media, respectively, both supplemented with 10% FBS and 1% Penicillin-Streptomycin. The effects of different drugs on cell viability were determined by quantifying intracellular adenosine triphosphate (ATP) levels using a luminescence-based kit (CellTiter-Glo, Promega) and a multilable 96-well plate (Costar). The accuracy and reproducibility of viability measurements using this luminiscence-based kit in lucMiaPaCa-2 cells was confirmed using the Dual-Reporter assay kit (Promega). In brief, 5×10^3 cells were seeded in triplicate and incubated for 72 hrs. under normoxic or hypoxic (1% O2-level, balanced with CO2 and nitrogen within a controlled atmosphere chamber) conditions. Indicated amounts of free 3-BrPA, 1:1-β-CD-3-BrPA or β-CD as a control were dissolved in PBS and added to the medium for 24 hrs. of treatment. For the experiments with gemcitabine, cells were incubated for 24 hrs. prior to a 72 hrs. exposure to the drug. Cell viability was determined following the manufacturer's protocol.

lucMiaPaCa-2 cells = assay: Monolayer cell culture viability assay (CellTiter-Glo), normoxic or hypoxic, lucMiaPaCa-2; type: cell-based; settings: Homo sapiens; normoxic, 72 hrs. exposure; barely achieved
Protocol: as §1

[3] = in vivo, after systemic administration; cited from earlier work
[4] = Comparative dose escalation studies in non-tumor-bearing animals; type: in vivo, mice; settings: after a single injection
Protocol: The anti-cancer efficacy of systemically delivered β-CD-3-BrPA was tested using a xenograft model of human pancreatic cancer in athymic nude mice. Prior to choosing the therapeutic dose for more detailed studies, comparative dose escalation studies in non-tumor-bearing animals were performed for both β-CD-3-BrPA and free 3-BrPA. […] animals with orthotopically-implanted and BLI- and USI-confirmed MiaPaCa-2 tumors were then randomized to receive intraperitoneal (i.p.) injections of β-CD-3-BrPA (N=21), gemcitabine (N=7), or β-CD (N=7). An additional group of animals with orthotopic implants (N=7) was treated with free 3-BrPA. […] At the end of the experiment (Day 28), only 2/7 animals (28%) treated with the free drug were still alive (FIG. 12, Panel C). […] After four weeks of treatment, a comparison of BLI signal intensity between the groups was performed. […] After achieving this endpoint, animals were sacrificed and tumors were harvested for further analysis. All animals were subjected to necropsies and organs (brain, heart, lungs, bowel, liver, and kidneys) were harvested for the analysis of potential tissue damage.

[5] = tested on: matrix-metalloproteinase 9 (MMP-9); assay: MMP-9 secretion by gelatin zymography and immunoblotting, MiaPaCa-2; type: cell-based, human; settings: 24 hrs., dose that did not induce apoptosis or reduce cell viability
Protocol: (§2) Zymography assays were performed to determine the activity of secreted MMP-9. Accordingly, 4×10^6 Suit-2 cells and 2.5×10^6 lucMiaPaCa-2 cells were seeded in 75 cm^2-flasks and incubated overnight at 37° C. under normoxic conditions. The following day, fresh FBS-free medium containing different concentrations of 3-BrPA was added and cells were incubated for an additional 24 hrs. Subsequently, supernatants were collected, filtered, and the final protein concentrations were determined using the 2D Quant Kit (GE Healthcare). After adjustment for concentration, each sample was loaded onto two 10% gelatin zymography gels (Novex, Invitrogen). Following electrophoresis, proteins in one of the two gels were renaturated and enzymatic digestion was allowed overnight at 37° C. in a developing buffer. The gel was stained with 4 parts 0.1% Coomassie Brilliant Blue in 1 part 100% methanol for 24 hrs. and washed with distilled (DI) water until digested areas were detectable as white bands. Western Blot analysis was performed using the duplicate gel. Proteins were blotted onto a PVDF-Membrane and blocked using 5% skimmed milk in 1×TBS and 0.1% Tween in DI (TBST). […] The HRP provided an […] signal (ECL Kit, GE Healthcare), which was analyzed with ImageJ 1.46r software (Wayne Rasband, National Institute of Health) and used to quantify signal intensity by comparing line integrals.

Suit-2 cells [6] = assay: Matrigel invasion assay, Suit-2; type: cell-based, human; settings: sub-lethal concentrations, 72 hrs.
Protocol: (§3) The ability of 3-BrPA to inhibit tumor invasion was studied using a matrigel invasion assay, as well as gelatin zymography (Hu and Beeton (2010) J. Visual. Exp. 45:2445; Scott et al. (2011) J. Visual. Exp. 58:e3525). For the matrigel invasion assays, a coating buffer containing 0.01 M Tris and 0.7% sodium chloride was prepared and used to dilute the matrigel basement membrane (BD Biosciences, #356234) to 300 ug/ml. Subsequently, Boyden chambers (Transwell, Corning; 6.5 mm-diameter, 8 um pore size) were coated with 100 μl matrigel solution and stored at 37° C. for 2 hrs. to allow for gelatination. Approximately 7.5×10^4 cells were resuspended in 500 μl FBS-free medium and plated into the upper chamber of the insert, which was then placed into a 24-well plate containing […] FBS-containing medium. After overnight incubation at 37° C., various amounts of 3-BrPA dissolved in PBS were added to the upper chamber. Fourty-eight hours later, non-invasive cells were removed from the matrigel with a cotton swab. Invaded cells adherent to the bottom side of the permeable insert were fixed and stained with the Diff Quik Stain Kit (Polysciences Inc.). […] Invasion of cells was quantified by measuring the area of stained cells after treatment compared to untreated samples at 10× magnification.

MiaPaCa-2 cells = assay: Matrigel invasion assay, MiaPaCa-2; type: cell-based, human; settings: sub-lethal concentrations, 48 hrs.
Protocol: as §3

[7] = tested on: matrix-metalloproteinase 9 (MMP-9); assay: MMP-9 secretion by gelatin zymography and immunoblotting, Suit-2; type: cell-based, human; settings: 24 hrs., dose that did not induce apoptosis or reduce cell viability
Protocol: as §2

[8] = tested on: subcutaneous pancreatic cancer xenografts; settings: 5 mg/kg, twice per week, systemic; cited from earlier work

Row | Compound | BLI signal increase as compared to baseline ([1]; after four weeks of treatment) | IC50 (Suit-2 cells [2]) | IC50 (lucMiaPaCa-2 cells) | time of inactivation through interaction with serum proteins (as early as) [3] | median lethal dose (LD50) [4] | animals died before the acquisition of the first follow-up BLI ([1]; daily i.p. 5 mg/kg in 500 μl saline) | loss of animals at the end of the experiment (treatment-related toxicity, Kaplan-Meier) ([1]; daily i.p. 5 mg/kg, 28 days) | animals still alive at the end of the experiment ([1]; daily i.p. 5 mg/kg, Day 28) | concentration at which marked reduction in the secretion of MMP-9 begins [5] | drug concentration showing a reduction in invasion (as low as) (Suit-2 cells [6]) | drug concentration showing a reduction in invasion (as low as) (MiaPaCa-2 cells) | concentration at which marked reduction in the secretion of MMP-9 begins [7] | efficacy of 3-BrPA alone [8]
1 | Nc1ccn([C@@H]2O[C@H](CO)[C@@H](O)C2(F)F)c(=O)n1 [gemcitabine, gemcitabine hydrochloride salt] | 60 fold | 100 nM | 100 nM | – | – | – | – | – | – | – | – | – | –
2 | O=C(O)C(=O)CBr [3-BrPA, 3-bromopyruvate] | – | – | – | 2 to 3 min | 10 mg/kg | 3/7 | 5/7 | 2/7 | 6.25 µM | 12.5 µM | 12.5 µM | 6.25 µM | did not report any significant efficacy
